# Measurements reported in patent US20100267728A1, “3-SUBSTITUTED-1,2,3-TRIAZIN-4-ONE'S AND 3 SUBSTITUTED 1,3-PYRIMIDINONE'S FOR ENHANCING GLU[…] RESPONSES” (CORTEX PHARMACEUTICALS, INC., priority 2007, published 2010).
# Tests used:
# AMPA receptor [1] = assay: In vitro patch clamp electrophysiology assay: glutamate-induced whole-cell current in cultured cortical neurons; assay type: cell-based; details: rat cortical neurons, 500 μM glutamate
# Method: Cortical cells were prepared from day 18-19 embryonic Sprague-Dawley rats and recorded after 3 days in culture. The extracellular solution (ECS) contained (in mM): NaCl (145), KCl (5.4), HEPES (10), MgCl2 (0.8), CaCl2 (1.8), glucose (10), sucrose (30); pH. 7.4. In order to block the voltage-gated sodium currents, 40 nM TTX was added to the recording solution. The intracellular solution contained (in mM): K-gluconate (140), HEPES (20), EGTA (1.1), phosphocreatine (5), MgATP (3), GTP (0.3), MgCl2 (5), and CaCl2 (0.1); pH: 7.2. All test compound and glutamate solutions were made-up in the extracellular solution.
# The whole-cell current was measured with patch-clamp amplifier (Axopatch 200B), filtered at 2 kHz, digitized at 5 kHz and recorded on a PC with pClamp 8. The cells were voltage-clamped at −80 mV. Solutions were applied by DAD-12 system. A baseline response for each cell was recorded using a 1 s pulse of 500 μM glutamate dissolved in ECS. Responses to test compound were then determined by application of a 10 s pulse of test compound followed by a 1 s pulse of the same concentration of test compound plus 500 μM glutamate and then 10 s of saline. This pulse sequence was repeated until a stable reading was obtained, or until sufficient data points were measured to allow extrapolation to a calculated maximum change.
# The mean value of plateau current between 600 ms to 900 ms after application of glutamate or test compound plus glutamate was calculated and used as the parameter to measure the drug effect. The plateau responses in the presence of varying concentrations of test compound were divided by the baseline response in order to calculate the percentage increase. Compounds are deemed active in this test if, at a test concentration of 3 μM or less, they produce a greater than 100% increase in the value of the steady-state current measured due to application of glutamate alone. The concentration at which the glutamate induced current is increased by 100% is commonly referred to as the EC2x value.
# AMPA receptor [2] = assay: Rat hippocampal slice assay: field EPSP amplitude in CA1; assay type: cell-based
# Method: (§1) In another test, excitatory responses (field EPSPs) were measured in hippocampal slices, which were maintained in a recording chamber continuously perfused with artificial cerebrospinal fluid (ACSF). During a 15-30 minute interval, the perfusion medium was switched to one containing various concentrations of the test compounds. Responses collected immediately before and at the end of drug perfusion were superimposed in order to calculate the percent increase in EPSP amplitude.
# To obtain data for the activity of invention compounds on synaptic responses, a bipolar nichrome stimulating electrode was positioned in the dendritic layer (stratum radiatum) of the hippocampal subfield CA1 close to the border of subfield CA3. Current pulses (0.1 msec) through the stimulating electrode activate a population of the Schaffer-commissural (SC) fibers, which arise from neurons in the subdivision CA3 and terminate in synapses on the dendrites of CA1 neurons. Activation of these synapses causes them to release the transmitter glutamate. Glutamate binds to post-synaptic AMPA receptors, which then transiently open an associated ion channel and permit a sodium current to enter the postsynaptic cell. This current results in a voltage in the extracellular space (the field EPSP), which is recorded by a high impedance recording electrode positioned in the middle of the stratum radiatum of CA1.
# The intensity of the stimulation current was adjusted to produce half-maximal EPSPs (typically about 1.5-2.0 mV). Paired stimulation pulses were given every 40 sec with an interpulse interval of 200 msec, as described further in Example 30.
# as §1, with “Hippocampal slices” for “In another test, excitatory responses (field EPSPs) were measured in hippocampal slices, which”, “During” for “During a”, “intervals,” for “interval,”
# To conduct these tests, the hippocampus was removed from anesthetized, 2 month old Sprague-Dawley rats and in vitro slices (400 μm thick) were prepared and maintained in an interface chamber at 35° C. using conventional techniques [see, for example, Dunwiddie and Lynch, J. Physiol. 276: 353-367 (1978)]. The chamber was constantly perfused at 0.5 mL/min with ACSF containing (in mM): NaCl 124, KCl 3, KH2PO4 1.25, MgSO4 2.5, CaCl2 3.4, NaHCO3 26, glucose 10 and L-ascorbate 2. A bipolar nichrome stimulating electrode was positioned in the dendritic layer (stratum radiatum) of the hippocampal subfield CA1 close to the border of subfield CA3.
# Current pulses (0.1 msec) through the stimulating electrode activate a population of the Schaffer-commissural (SC) fibers, which arise from neurons in the subdivision CA3 and terminate in synapses on the dendrites of CA1 neurons. Activation of these synapses causes them to release the transmitter glutamate. Glutamate binds to the post-synaptic AMPA receptors, which then transiently open an associated ion channel and permit a sodium current to enter the postsynaptic cell. This current results in a voltage in the extracellular space (the field EPSP) which is recorded by a high impedance recording electrode positioned in the middle of the stratum radiatum of CA1. The intensity of the stimulation current was adjusted to produce half-maximal EPSPs (typically about 1.5-2.0 mV). Paired stimulation pulses were given every 40 s with an interpulse interval of 200 msec (see below). The field EPSPs of the second response were digitized and analyzed to determine amplitude. If the responses were stable for 15-30 min (baseline), test compounds were added to the perfusion lines for a period of about 15 min. The perfusion was then changed back to regular ACSF. […]
# AMPA receptor [3] = assay: In vivo electrophysiology: field EPSP in dentate gyrus of anesthetized animals; design: species or system rat
# Method: Animals are maintained under anesthesia by phenobarbital administered using a Hamilton syringe pump. Stimulating and recording electrodes are inserted into the perforant path and dentate gyrus of the hippocampus, respectively. Once electrodes are implanted, a stable baseline of evoked responses are elicited using single monophasic pulses (100 μs pulse duration) delivered at 3/min to the stimulating electrode. Field EPSPs are monitored until a stable baseline is achieved (about 20-30 min), after which a solution of test compound in HPCD is injected intraperitoneally and evoked field potentials are recorded. Evoked potentials are recorded for approximately 2 h following drug administration or until the amplitude of the field EPSP returns to baseline. In the latter instance, it is common that an iv administration is also carried out with an appropriate dose of the same test compound.
melting point,SMILES,also measured
195 to 199 °C,C[C@H](Cn1cncn1)n1nnc2cc3c(=O)n(C4CC4)nnc3cc2c1=O,–
178 to 180 °C,CC(Cn1cccn1)n1nnc2cc3c(=O)n(C4CC4)nnc3cc2c1=O (stereo not shown),–
223 to 226 °C,CC(Cn1ncnn1)n1nnc2cc3c(=O)n(C(C)Cn4ncnn4)nnc3cc2c1=O (stereo not shown),–
204 to 206 °C,CC(Cn1cnnn1)n1nnc2cc3c(=O)n(C(C)Cn4ncnn4)nnc3cc2c1=O (stereo not shown),–
245 to 246 °C,CC(Cn1cnnn1)n1cnc2cc3c(=O)n(C4CC4)nnc3cc2c1=O (stereo not shown),–
160 to 161 °C,CCC(Cn1ncnn1)n1cnc2cc3c(=O)n(C4CC4)nnc3cc2c1=O (stereo not shown),–
213 to 214 °C,CCC(Cn1cnnn1)n1cnc2cc3c(=O)n(C4CC4)nnc3cc2c1=O (stereo not shown),–
129 to 130 °C,CCC(Cn1nccn1)n1cnc2cc3c(=O)n(C4CC4)nnc3cc2c1=O (stereo not shown),–
215 to 217 °C,CCC(Cn1ccnn1)n1cnc2cc3c(=O)n(C4CC4)nnc3cc2c1=O (stereo not shown),–
222 to 223 °C,C#CCn1nnc2cc3c(=O)n(C(C)Cn4ncnn4)cnc3cc2c1=O (stereo not shown),–
218 to 219 °C,C#CCn1nnc2cc3c(=O)n(C(C)Cn4cnnn4)cnc3cc2c1=O (stereo not shown),–
198 to 200 °C,CC[C@H](Cn1cnnn1)n1cnc2cc3c(=O)n([C@H](C)Cn4ncnn4)nnc3cc2c1=O,–
140 to 141 °C,CC[C@H](Cn1nnc(C)n1)n1cnc2cc3c(=O)n([C@H](C)Cn4ncnn4)nnc3cc2c1=O,–
238 to 240 °C,CC[C@H](Cn1nnnc1C)n1cnc2cc3c(=O)n([C@H](C)Cn4ncnn4)nnc3cc2c1=O,–
80 to 81 °C,CC[C@H](Cn1cnnn1)n1cnc2cc3c(=O)n([C@H](CC)Cn4cnnn4)nnc3cc2c1=O,–
231 to 232 °C,C[C@H](Cn1cccn1)n1cnc2cc3c(=O)n([C@H](C)Cn4cc(Cl)cn4)cnc3cc2c1=O,–
160 to 161 °C,C[C@H](Cn1cnnn1)n1nnc2cc3c(=O)n([C@H](C)Cn4ncnn4)nnc3cc2c1=O,–
–,"C[C@H](Cn1ncnn1)n1nnc2cc3c(=O)n(C4CC4)nnc3cc2c1=O [Example 1, 3-Cyclopropyl-8-[(1R)-1-methyl-2-(2H-tetrazol-2-yl)ethyl]-3,8-dihydro[1,2,3]triazino[4,5-g][1,2,3]-benzotriazine-4,9-dione]",In vitro Patch Clamp Electrophysiology EC2x (concentration at which the glutamate induced current is increased by 100%) (AMPA receptor [1]): 0.28 μM; % increase in the amplitude of the field EPSP in the CA1 region of rat hippocampal slice (AMPA receptor [2]; @ 3 μM): 69% @ 3 μM; % increase in the amplitude of the field EPSP in rat dentate gyrus (AMPA receptor [3]; @ 5 mpk i.p.): 37%^3
–,"C[C@H](Cn1ncnn1)n1nnc2cc3c(=O)n(C)nnc3cc2c1=O [Example 4, 3-Methyl-8-[(2R)-1-(2H-tetrazol-2-yl)propan-2-yl]-3,8-dihydrobenzo[1,2-d:4,5-d′]bis[1,2,3]triazine-4,9-dione]",In vitro Patch Clamp Electrophysiology EC2x (concentration at which the glutamate induced current is increased by 100%) (AMPA receptor [1]): 0.28 μM; % increase in the amplitude of the field EPSP in the CA1 region of rat hippocampal slice (AMPA receptor [2]; @ 3 μM): 18% @ 3 μM; % increase in the amplitude of the field EPSP in rat dentate gyrus (AMPA receptor [3]; @ 5 mpk i.p.): 46%^3
–,"COCCn1nnc2cc3c(=O)n([C@H](C)Cn4ncnn4)nnc3cc2c1=O [Example 18, 3-(2-Methoxyethyl)-8-[(2R)-1-(2H-tetrazol-2-yl)propan-2-yl]-3,8-dihydrobenzo[1,2-d: 4,5-d′]bis[1,2,3]triazine-4,9-dione]",% increase in the amplitude of the field EPSP in the CA1 region of rat hippocampal slice (AMPA receptor [2]; @ 10 μM): 35% @ 10 μM; % increase in the amplitude of the field EPSP in rat dentate gyrus (AMPA receptor [3]; @ 5 mpk i.p.): 34%^3
–,"C[C@H](Cn1ncnn1)n1nnc2cc3c(=O)n(CC#N)nnc3cc2c1=O [Example 22, {4,9-Dioxo-8-[(2R)-1-(2H-tetrazol-2-yl)propan-2-yl]-8,9-dihydrobenzo[1,2-d:4,5-d′]bis[1,2,3]triazin-3(4H)-yl}acetonitrile]",In vitro Patch Clamp Electrophysiology EC2x (concentration at which the glutamate induced current is increased by 100%) (AMPA receptor [1]): 0.24 μM; % increase in the amplitude of the field EPSP in the CA1 region of rat hippocampal slice (AMPA receptor [2]; @ 3 μM): 24% @ 3 μM; % increase in the amplitude of the field EPSP in rat dentate gyrus (AMPA receptor [3]; @ 5 mpk i.p.): 42%^3
–,"C[C@H](Cn1ncnn1)n1cnc2cc3c(=O)n(C4CC4)nnc3cc2c1=O [Example 53, 3-Cyclopropyl-8-[(2R)-1-(2H-tetrazol-2-yl)propan-2-yl]-3,8-dihydro[1,2,3]triazino[4,5-g]quinazoline-4,9-dione]",In vitro Patch Clamp Electrophysiology EC2x (concentration at which the glutamate induced current is increased by 100%) (AMPA receptor [1]): 0.60 μM; % increase in the amplitude of the field EPSP in the CA1 region of rat hippocampal slice (AMPA receptor [2]; @ 10 μM): 55% @ 10 μM; % increase in the amplitude of the field EPSP in rat dentate gyrus (AMPA receptor [3]; @ 5 mpk i.p.): 33%^3
–,"C[C@H](Cn1ncnn1)n1nnc2cc3c(=O)n([C@H](C)Cn4ncnn4)nnc3cc2c1=O [Example 80, 3,8-Bis[(2R)-1-(2H-tetrazol-2-yl)propan-2-yl]-3,8-dihydrobenzo[1,2-d:4,5-d′]bis[1,2,3]triazine-4,9-dione]",In vitro Patch Clamp Electrophysiology EC2x (concentration at which the glutamate induced current is increased by 100%) (AMPA receptor [1]): 0.016 μM; % increase in the amplitude of the field EPSP in the CA1 region of rat hippocampal slice (AMPA receptor [2]; @ 3 μM): 65% @ 3 μM; % increase in the amplitude of the field EPSP in rat dentate gyrus (AMPA receptor [3]; @ 1 mpk i.p.): 59%^4
